Laboratory results reported in US9718825B2, “N-(4-(azaindazol-6-yl)-phenyl)-sulfonamides and their use as pharmaceuticals” (priority 2013, dated 2017).
Like-named read-outs stand apart in the source and are kept apart here.

Tests used:
[1] = molecular target: recombinant human SGK-1 enzyme (Homo sapiens, UniProt O00141); assay: Enzymatic activity assay: SGK-1 substrate peptide phosphorylation (Caliper lab-chip mobility shift); format: biochemical; settings: peptide substrate 1 μM, ATP 10 μM, 60 min at 37° C., read-out: IC50 values for inhibition of SGK-1 enzymatic activity
Chain of recombinant human SGK-1 enzyme (O00141 whole entry, looked up): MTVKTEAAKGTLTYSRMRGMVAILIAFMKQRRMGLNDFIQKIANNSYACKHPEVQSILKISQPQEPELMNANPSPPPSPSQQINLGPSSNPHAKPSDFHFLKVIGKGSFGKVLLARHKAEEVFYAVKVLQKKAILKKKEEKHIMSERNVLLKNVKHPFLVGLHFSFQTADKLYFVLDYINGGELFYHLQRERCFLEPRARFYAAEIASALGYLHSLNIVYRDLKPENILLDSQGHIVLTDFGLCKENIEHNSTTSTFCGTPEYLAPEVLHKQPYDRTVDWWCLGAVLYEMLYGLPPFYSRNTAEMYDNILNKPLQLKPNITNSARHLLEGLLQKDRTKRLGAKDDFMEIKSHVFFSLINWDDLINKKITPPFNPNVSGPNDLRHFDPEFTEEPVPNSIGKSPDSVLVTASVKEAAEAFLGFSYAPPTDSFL

[2] = test system: SGK-1 dependent phosphorylation of GSK3beta in U2OS cells; assay: SGK-1 dependent phosphorylation of GSK3beta in U2OS cells overexpressing recombinant SGK-1 and GSK3beta; format: cell-based, human; settings: U2OS cells, 6 h incubation, ratio of phosphorylated GSK3beta to total GSK3beta, read-out: IC50 values for inhibition of SGK-1 dependent phosphorylation of GSK3beta in U2OS cells
[3] = test system: collagen type X (Col10a1) expression in mouse chondrogenic ATDC5 cells; assay: Chondrocyte hypertrophic differentiation in mouse chondrogenic ATDC5 cells (collagen type X expression); format: cell-based; settings: Col10a1 expression by quantitative real-time PCR after two weeks of cell culture, read-out: IC50 values for the inhibition of collagen type X expression in mouse chondrogenic ATDC5 cells
Source text: D) Determination of the effect on chondrocyte hypertrophic differentiation in mouse chondrogenic ATDC5 cells
The ATDC5 cell assay was used as in vitro model to determine the effects of the compounds of the invention on chondrocyte hypertrophic differentiation by monitoring the expression levels of collagen type X (Col10a1) as specific marker of chondrocyte hypertrophy.
Background: ATDC5 cells are a clonal mouse embryonic cell line derived from multipotent AT805 teratocarcinoma cells (Atsumi, T. et al., A chondrogenic cell line derived from a differentiating culture of AT805 teratocarcinoma cells, Cell Differ. Dev. 1990, 30, 109-116). The cells can undergo insulin-dependent chondrogenic cell differentiation entailing distinct differentiation stages starting from an undifferentiated, subconfluent stage, a condensation stage, a cartilage nodule formation stage and a calcification stage within 45 days of in vitro culture. Chondrogenic differentiation can be shown by measuring the expression of the cartilage main collagen (Col2a1) and aggrecan (AGC1) and glycosaminoglycan-staining with Alcian Blue within two weeks after insulin-triggered differentiation, and hypertrophic differentiation can be monitored by the expression of collagen type X (Col10a1), a specific marker of chondrocyte hypertrophy within 21 days of in vitro culture. (Shukunami, C. et al., Chondrogenic Differentiation of Clonal Mouse Embryonic Cell Lne ATDC5 In Vitro: Differentiation-dependent Gene Expression of Parathyroid Hormone (PTH)/PTH-related Peptide Receptor, J. Cell Biol. 1996, 133, 457-468). Growth factor BMP-2 is known to stimulate cell differentiation and can stimulate early and late-phase ATDC5 differentiation (Shukunami, C. et al., Sequential Progression of the Differentiation Program by Bone Morphogenetic Protein-2 in Chondrogenic Cell Line ATDC5, Exp. Cell Res. 1998, 241, 1-11). Thyroid hormone triiodothyronine (T3) promotes hypertrophic differentiation of growth plate chondrocytes (Robson, H. et al., Thyroid Hormone Acts Directly on Growth Plate Chondrocytes to Promote Hypertrophic Differentiation and Inhibit Clonal Expansion and Cell Proliferation, Endocrinology 2000, 141, 3887-3897). Addition of BMP2 and T3 can accelerate ATDC5 hypertrophic differentiation leading to the strong induction Col10a1 expression between 10-14 days. SGK-inhibitors were added to differentiating ATDC5 cells for 14 days and Col10a1 gene expression was quantified to determine effects on chondrocyte hypertrophic differentiation.
Cell assay description: ATDC5 cells were maintained in 300 cm^2 tissue culture flasks in DMEM/Ham's F12+5% FCS supplemented with 10 μg/ml human transferrin, 30 nM sodium selenite, 50 μg/ml kanamycin and grown at 37° C. in 5% CO2 in 95% air. To initiate cell differentiation, 9.9×10^4 cells were plated in 24 well plates and grown for 2 days. Medium was exchanged with DMEM/Ham's F12+5% FCS supplemented with 10 μg/ml human transferrin, 30 nM sodium selenite, 50 μg/ml ascorbic acid and 1 μg/ml BMP2. The assay was run in triplicates, compounds were added in […], and medium changed every 2-3 days including supplementation of compound. At day 7 after initiation of cell differentiation, 1 μM T3 was used as additional supplement in the cell culture.
After two weeks of cell culture, RNA was isolated and converted to cDNA for determination of gene expression by quantitative real-time PCR. Cells were lysed in 600 μl of RLT-buffer (Qiagen) and total RNA was isolated using the RNA-easy Mini RNA isolation Kit (Qiagen) which was run on a Qiacube system (Qiagen) according to the supplier's instructions. RNA was isolated in 30 μl of pure water and the RNA content measured by UV-spectroscopy (Nanodrop, Peqlab). For cDNA synthesis 50 ng total RNA was reverse transcribed using the High Capacity cDNA Reverse Transcription Kit (Applied Biosystems, Product Number 4368813) according to the manufacturer's instructions. […]

[4] = test system: SGK-1 dependent activation of ENaC-currents in A6 cell monolayers; assay: Functional electrophysiological assay (Ussing chamber): SGK-1 dependent activation of ENaC-currents in A6 cell monolayers; format: cell-based, Xenopus laevis; settings: hypoosmotic shock 45 min, amiloride-sensitive ΔI'sc, read-out: IC50 values for inhibition of SGK-1 dependent activation of ENaC-currents in A6 cell monolayers
Procedure: C) Functional Electrophysiological Assay for Determination of SGK-1 Dependent Activation of ENaC-Currents in A6 Cell Monolayers
Cells were grown in cell culture flasks (Nunc) at 28° C. in a humidified atmosphere with 4% CO2. The culture medium contained a 7:3 mixture of Leibovitz's L-15 (Sigma-Aldrich)/Coon's (Sigma-Aldrich) media supplemented with 10% fetal bovine serum (PAA), 20% sterile water, 25 mM NaHCO3 (Sigma-Aldrich), 100 U/ml penicillin (PAA) and 100 μg/ml streptomycin (PAA). The osmolality of the medium was 270 mOsml/kg H2O). Cells were detached with accutase (PAA) and seeded for electrophysiological measurements into transwell filter inserts (polyester 0.4 μm pore size, Corning) at a density of 0.4×10^6 cells/filter. Cells were cultivated for 7-10 days, and confluent A6 cell monolayers were identified by repetitive resistance measurements in cell culture medium using an EVOM^2 ohmmeter (World Precision Instruments). Monolayers with a resistance of >10 kOhm were considered confluent. Filters with confluent A6 cells were transferred into a continuously perfused Ussing-chamber, and electrophysiological parameters were measured under open circuit conditions using a transepithelial clamp amplifier (EP Design). Short circuit current (I′sc) was calculated by Ohm's law. […] The pH was adjusted to 8.2. All measurements were done at room temperature.
To evaluate the effects of SGK inhibitors on ENaC-mediated transepithelial currents, A6 monolayers were first equilibrated for 5 min with isoosmotic Ringer solution from both the luminal and basolateral side of the cell layer. Amiloride was applied to the luminal site to establish the basal ENaC-dependent current (I′scbasal). Cell layers were then perfused from the basolateral side for 10 min with compounds in isotonic buffer or control isotonic buffer. SGK signaling leading to increased ENaC activity and subsequent increase in I′sc was stimulated by application of hypoosmotic Ringer-solution for 45 min to both sides of the A6 cell layer. ENaC-dependent I′sc after the hypoosmotic shock (I′schypo) was determined by application of amiloride at the end of the experiment. Total changes of amiloride-sensitive Isc was calculated as ΔI′sc=I′schypo−I′scbasal. […] The inhibition of ΔI′sc by the test compounds was determined relative to the ΔI′sc measured with control monolayers which were not treated with the test compound.

[5] = Mus musculus, Chondrocyte, 336 h

Row | IC50 ([2]; Homo sapiens) [nM] | IC50 ([4]; Xenopus laevis, INA-6, 0.75 h) [nM] | SMILES | IC50 [1] [nM] | IC50 [2] [nM] | IC50 [3] [nM] | IC50 [4] [nM] | IC50 [3, 5] [nM]
1 |  |  | CC(C)COc1nc(-c2ccc(NS(=O)(=O)c3cc(F)ccc3F)cc2)nc2[nH]nc(N)c12 [Example 328] | 170 | 150 | 94 |  | 
2 |  |  | Cc1ccc(C#N)c(S(=O)(=O)Nc2ccc(-c3nc(C)c4c(N)n[nH]c4n3)cc2)c1 [Example 468] | < 1.5 | 230 | 870 | 610 | 
3 |  |  | Cc1n[nH]c2nc(-c3ccc(NS(=O)(=O)c4cc(Cl)ccc4Cl)cc3)nc(OC3CCCNC3)c12 (centres unmarked) [Example 322] | 2.6 | 26 | 8 |  | 
4 | 3700 | 190 | N#Cc1ccc(Cl)cc1S(=O)(=O)Nc1ccc(-c2ncc3c(N)n[nH]c3n2)cc1 [Example 446, N-[4-(3-Amino-1H-pyrazolo[3,4-d]pyrimidin-6-yl)-phenyl]-5-chloro-2-cyano-benzenesulfonamide] |  |  |  |  | 550
5 |  |  | O=S(=O)(Nc1ccc(-c2nc(OC3CCC(O)CC3)c3cn[nH]c3n2)cc1F)c1cc(Cl)ccc1Cl (centres unmarked) [Example 439] | 2.5 | 110 | 44 |  | 
6 |  |  | Cc1n[nH]c2nc(-c3ccc(NS(=O)(=O)c4cc(Cl)ccc4F)cc3)nc(OC3CCN(C(C)C)CC3)c12 [Example 346] | 3.2 |  | 66 | 2000 | 
7 |  |  | Cc1ccc(F)c(S(=O)(=O)Nc2ccc(-c3nc(OCC(C)C)c4c(N)n[nH]c4n3)cc2)c1 [Example 317] | 11 | 210 |  | 10000 | 
8 |  |  | COc1ccc(Cl)c(S(=O)(=O)Nc2ccc(-c3ncc4c(N)n[nH]c4n3)cc2)c1 [Example 461] | < 1.5 | 260 |  | 180 | 
9 |  |  | CC(C)COc1nc(-c2ccc(NS(=O)(=O)c3cc(Cl)ccc3Cl)cc2)nc2[nH]nc(N)c12 [Example 310] | 130 | 220 |  | 10000 | 
10 |  |  | Nc1n[nH]c2cc(-c3ccc(NS(=O)(=O)c4cc(Cl)c(F)cc4F)cc3)ncc12 [Example 555] | < 1.5 | 3800 |  | 600 | 
11 |  | 3400 | O=S(=O)(Nc1ccc(-c2nc(OC3CCC(O)CC3)c3cn[nH]c3n2)cc1)c1cc(Cl)ccc1F (centres unmarked) [Example 3, 5-Chloro-2-fluoro-N-{4-[4-(4-hydroxy-cyclohexyloxy)-1H-pyrazolo[3,4-d]pyrimidin-6-yl]-phenyl}-benzenesulfonamide] |  |  |  |  | 52
12 |  |  | Cc1n[nH]c2nc(-c3ccc(NS(=O)(=O)c4cc(F)ccc4F)cc3)nc(OC3CCN(C(C)C)CC3)c12 [Example 349] | 8.4 |  | 380 | 3200 | 
13 |  |  | Cc1ccc(C#N)c(S(=O)(=O)Nc2ccc(-c3ncc4c(N)n[nH]c4n3)cc2)c1 [Example 453] | 1.6 | 2100 | 550 |  | 
14 |  |  | CCOc1nc(-c2ccc(NS(=O)(=O)c3cc(Cl)c(F)cc3F)cc2)nc2[nH]nc(N)c12 [Example 451] | 0.57 |  | 10 |  | 
15 |  |  | Cc1n[nH]c2nc(-c3ccc(NS(=O)(=O)c4cc(Cl)ccc4F)cc3)nc(OCCCO)c12 [Example 391] | 9.6 |  | 120 |  | 
16 |  |  | O=S(=O)(Nc1ccc(-c2nc(OC3CCC(O)CC3)c3cn[nH]c3n2)cc1F)c1cc(Cl)ccc1F (centres unmarked) [Example 440] | < 1.5 | 240 | 81 |  | 
17 |  |  | Cc1ccc(C#N)c(S(=O)(=O)Nc2ccc(-c3nc(OC4CCC(O)CC4)c4c(C)n[nH]c4n3)cc2)c1 (centres unmarked) [Example 96] | < 1.5 | 740 | 33 |  | 
18 |  |  | Nc1n[nH]c2cc(-c3ccc(NS(=O)(=O)c4cc(Cl)ccc4Cl)cc3)ncc12 [Example 556] | 1.7 | 1700 |  | 2000 | 
19 |  |  | Cc1nc(-c2ccc(NS(=O)(=O)c3cc(Cl)ccc3Cl)cc2)nc2[nH]nc(N3CCC4(CC3)COC4)c12 [Example 496] | 6.2 | 7000 | 140 |  | 
20 |  |  | Cc1nc(-c2ccc(NS(=O)(=O)c3cc(Cl)ccc3C#N)cc2)nc2[nH]nc(N)c12 [Example 465] | < 1.5 | 1200 | 700 |  | 
21 |  |  | Cc1n[nH]c2nc(-c3ccc(NS(=O)(=O)c4cc(Cl)ccc4Cl)cc3)nc(OC3CCN(C(C)C)CC3)c12 [Example 351] | 3.8 |  | 43 |  | 
22 |  |  | CCN1CCCC(Oc2nc(-c3ccc(NS(=O)(=O)c4cc(OC)ccc4F)cc3)nc3[nH]nc(C)c23)C1 (centres unmarked) [Example 424] | 13 |  | 62 |  | 
23 |  |  | COCCCN1CCC(Oc2nc(-c3ccc(NS(=O)(=O)c4cc(F)ccc4F)cc3)nc3[nH]nc(C)c23)CC1 [Example 397] | 8.2 |  | 92 |  | 
24 |  |  | Cc1n[nH]c2nc(-c3ccc(NS(=O)(=O)c4cc(F)ccc4F)cc3)nc(OC3CCCNC3)c12 (centres unmarked) [Example 321] | 6.9 | 38 | 680 |  | 
25 |  |  | CC(=O)N1CCC(Oc2nc(-c3ccc(NS(=O)(=O)c4cc(Cl)ccc4F)cc3)cc3[nH]nc(C)c23)CC1 [Example 646] | 11 |  | 340 |  | 
26 |  |  | Cc1ccc(C#N)c(S(=O)(=O)Nc2ccc(-c3nc(OCCCO)c4c(C)n[nH]c4n3)cc2)c1 [Example 380] | 12 |  | 120 |  | 
